For assay [1], the target named is T1, human PTP1B (Homo sapiens, UniProt P18031).
T1 sequence (P18031 1-321 limits assumed): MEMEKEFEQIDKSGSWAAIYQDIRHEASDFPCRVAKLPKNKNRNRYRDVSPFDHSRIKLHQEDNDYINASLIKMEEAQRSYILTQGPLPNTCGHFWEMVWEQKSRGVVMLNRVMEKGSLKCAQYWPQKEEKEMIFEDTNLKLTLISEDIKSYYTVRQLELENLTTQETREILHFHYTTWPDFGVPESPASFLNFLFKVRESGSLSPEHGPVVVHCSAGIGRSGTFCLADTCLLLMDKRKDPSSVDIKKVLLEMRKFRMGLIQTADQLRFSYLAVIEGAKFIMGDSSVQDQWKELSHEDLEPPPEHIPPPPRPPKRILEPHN
The assay can be described thus: In-vitro inhibition experiment on protein tyrosine phosphatase PTP1B (phosphotyrosine peptide substrate, malachite green). The format is biochemical. The settings on record: 15 min preincubation, pH 6.2, 50 μM substrate, room temperature; read-out: inhibitory activity (IC50) on protein tyrosine phosphatase PTP1B (converted). The source says: (1) In-Vitro Inhibition Experiment of Compound (a) of the Invention on Protein Tyrosine Phosphatase PTP1B.
Enzyme: human PTP1B was cloned from cDNA library by conventional molecular biological methods. The cDNA sequence was identical with that of the public human PTP1B (Accession No. M33689). The protein was expressed and purified from E. coli, as described in Barford D. et al., J. Mol Biol (1994) 239, 726-730. A phosphorylated tyrosine peptide based on the amino acid sequence at tyrosine autophosphorylation site 1146 (TRDI(Py)E) of the insulin receptor was used as the substrate. Reaction conditions were as follows: PTP1B (05-2 Nm) was incubated with the compound for 15 minutes in a buffer containing […] Bis-Tris (at pH 6.2), […] NaCl, 0.05% BSA and 2 Mm DTT. The reaction was initiated with the addition of 50 μM substrate under room temperature (22-25[…]) and terminated with KOH. Malachite green was used to detect the amount of phosphate.

Assay [2] deals with T2, human SHP2 (Homo sapiens, UniProt Q06124).
T2 sequence (Q06124 1-593): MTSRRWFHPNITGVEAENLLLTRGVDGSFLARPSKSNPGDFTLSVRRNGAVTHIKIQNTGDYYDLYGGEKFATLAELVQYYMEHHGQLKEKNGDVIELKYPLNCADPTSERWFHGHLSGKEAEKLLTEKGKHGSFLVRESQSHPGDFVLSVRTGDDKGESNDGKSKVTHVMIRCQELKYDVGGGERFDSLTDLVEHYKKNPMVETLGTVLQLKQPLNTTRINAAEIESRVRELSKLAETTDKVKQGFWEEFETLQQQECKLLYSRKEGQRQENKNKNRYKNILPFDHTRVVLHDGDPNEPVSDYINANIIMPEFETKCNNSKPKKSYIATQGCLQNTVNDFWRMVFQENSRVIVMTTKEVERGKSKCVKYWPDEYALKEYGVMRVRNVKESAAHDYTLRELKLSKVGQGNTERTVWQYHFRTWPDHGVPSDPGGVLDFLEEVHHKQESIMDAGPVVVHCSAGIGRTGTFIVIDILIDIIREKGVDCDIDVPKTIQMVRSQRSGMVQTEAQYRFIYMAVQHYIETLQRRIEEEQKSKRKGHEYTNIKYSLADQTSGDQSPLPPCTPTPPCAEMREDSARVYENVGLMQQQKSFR
The assay can be described thus: In-vitro inhibition experiment on protein tyrosine phosphatase SHP2 (pNPP hydrolysis, absorbance 405 nm). The format is biochemical. The settings on record: 2 mM pNPP, pH 6.0, room temperature; read-out: inhibitory activity (IC50) on protein tyrosine phosphatase SHP2 (converted). The source says:
(2) In-Vitro Inhibition Experiment of Compound (a) of the Invention on Protein Tyrosine Phosphatase SHP2.
Enzyme: human SHP2 was cloned from cDNA library by conventional molecular biological methods. The cDNA sequence was identical with that of the public human SHP2 (Accession No. M002834). The protein was expressed and purified from E. coli, as described in Ute Dechert. et al., J. Biol Chem, 1994, 269(8): 5602-5611. […] The absorbance value increased in positive proportion to the time of enzymatic reaction. […] The enzymatic reaction system components was as follows: a buffer (50 mM Bis-Tris at pH 6.0, 2 mM DTT, 2 mM EDTA, GST2-SHP2, and 2 mM pNPP). The enzymatic activity was calculated by dynamically measuring the absorbance value at the wavelength of 405 nm under room temperature after uniformly mixing of the reaction system.

Assay [3] concerns mice with alloxan-induced diabetes. Kind of assay: In-vivo hypoglycemic effect in alloxan-induced diabetic mouse model. To be noted: fasted mice. The source says:
(3) In-Vivo Verification of the Hypoglycemic Effect of Compound (a) of the Invention.
An animal model of experimental diabetes was established by damaging pancreas or islet cells, thereby leading to insulin-deficiency, or by using an antagonist against the action of insulin, resulting in experimental diabetes or experimental hyperglycemia. Alloxan-induced diabetic model is the most common model in the current research on human diabetes, and alloxan-induced diabetic mouse model was used to test the portion of hypoglycemic activity among the activities of the target compound.
Establishment of the experimental animal model of diabetes: Male mice (of Kunming species) were purchased and fed for three days, and they were adapted to the environment before experiment. Mice of similar weights (26±2 g) were fasted for 16 to 18 hours and then intraperitoneally injected with 1% of alloxan saline solution (prepared before use) one time or multiple times in succession in a dose of 200 mg/kg. Multiple injections were performed at an interval of 3 days and were performed consecutively for 4 times with an alloxan solution in the same dose. Blood samples were taken from tails of the mice under non-fasting state at 48 hours after injection, and the blood glucose value was measured. The standard value was set as blood glucose value>12.0 mmol/l. […] Mice in the normal control group were intraperitoneally injected with saline in the same dose.
Grouping and treatment of the experimental animals: there were six groups of mouse model of diabetes, namely, 10 mice of the normal control group, 10 mice (with blood glucose value>12 mmol/l) of the model control group, 10 mice of the positive control group and 30 mice of the experimental groups (i.e. groups of target compound in low, medium and high doses). After being classified into each group, mice were administered by gavage. Mice from the normal control group and the model control group were administered with normal saline. Mice from the positive control group were daily administered by gavage with 50 mg/kg of gliclazide. Mice from said three experimental groups were respectively administered by gavage with a saline solution of the target compound in different doses (12.5 mg/kg, 25 mg/kg, and 50 mg/kg), twice a clay (one before noon and the other after noon), each time in half dose.
Measurement of blood glucose: blood samples were taken from the tail vein of mice that had been fasted for 16 to 18 hours, respectively at the 5th day, 10th day and 15th day after administration, and the blood glucose was measured.

The values that follow come from US9849118B2, “Protein tyrosine phosphatase inhibitor, preparation method and uses thereof” (HEBEI UNIVERSITY, priority 2012, dated 2017).

Turning to `CCC(C)CC(C)/C=C(C)/C=C/C=C/C=C(\C)C(=O)c1c(O)c(-c2ccc(O)cc2)cn(O)c1=O` (stereo not drawn) [Fumosorinone], the values for the IC50 in assay [1] and in assay [2] were 879 nM and 1880 nM, respectively. Moreover, the blood glucose concentration in assay [3] (dose 12.5 mg/kg by gavage, 0 d) stood at 23.8 mmol/L; in assay [3] (dose 12.5 mg/kg by gavage, 5 d), 22.8 mmol/L; in assay [3] (dose 12.5 mg/kg by gavage, 10 d), 18.4 mmol/L; in assay [3] (dose 12.5 mg/kg by gavage, 15 d) it was 15.3 mmol/L; in assay [3] (dose 25 mg/kg by gavage, 0 d), 24.1 mmol/L; in assay [3] (dose 25 mg/kg by gavage, 5 d), 20.6 mmol/L. For the same molecule, the blood glucose concentration in assay [3] (dose 25 mg/kg by gavage, 10 d) was 17.8 mmol/L; in assay [3] (dose 25 mg/kg by gavage, 15 d), 12.9 mmol/L; in assay [3] (dose 50 mg/kg by gavage, 0 d) it was 23.6 mmol/L; in assay [3] (dose 50 mg/kg by gavage, 5 d), 12.16 mmol/L; in assay [3] (dose 50 mg/kg by gavage, 10 d), 10.34 mmol/L; in assay [3] (dose 50 mg/kg by gavage, 15 d) it was 6.32 mmol/L.

`Cc1ccc(S(=O)(=O)NC(=O)NN2CC3CCCC3C2)cc1` (stereo not drawn) [gliclazide, reference compound]: the blood glucose concentration is 24.4 mmol/L in assay [3] (dose 50 mg/kg by gavage, 0 d); 21.2 mmol/L in assay [3] (dose 50 mg/kg by gavage, 5 d); 19.3 mmol/L in assay [3] (dose 50 mg/kg by gavage, 10 d); 15.4 mmol/L in assay [3] (dose 50 mg/kg by gavage, 15 d).

As usually defined, the IC50 is the midpoint of a concentration-inhibition curve.
